# Entries after “also recorded” stand apart in the source; their conditions may differ.
# Assays:
# [1] = target: T1, purified bovine brain tubulin (Bos taurus, UniProt P81947+Q6B856); experiment: Inhibition of tubulin polymerization (turbidimetric, cell-free); assay type: biochemical; settings: for IC50: 10 μM tubulin, extent of polymerization after 20 min at 30° C., read-out: Inhibition of tubulin polymerization IC50 (μM) ± SD; for inhibition of tubulin polymerization (in words): cell-free assay
# T1 construct: purified bovine brain tubulin; from tissue; host or cells: bovine brain
# T1 sequence (Q6B856 whole entry): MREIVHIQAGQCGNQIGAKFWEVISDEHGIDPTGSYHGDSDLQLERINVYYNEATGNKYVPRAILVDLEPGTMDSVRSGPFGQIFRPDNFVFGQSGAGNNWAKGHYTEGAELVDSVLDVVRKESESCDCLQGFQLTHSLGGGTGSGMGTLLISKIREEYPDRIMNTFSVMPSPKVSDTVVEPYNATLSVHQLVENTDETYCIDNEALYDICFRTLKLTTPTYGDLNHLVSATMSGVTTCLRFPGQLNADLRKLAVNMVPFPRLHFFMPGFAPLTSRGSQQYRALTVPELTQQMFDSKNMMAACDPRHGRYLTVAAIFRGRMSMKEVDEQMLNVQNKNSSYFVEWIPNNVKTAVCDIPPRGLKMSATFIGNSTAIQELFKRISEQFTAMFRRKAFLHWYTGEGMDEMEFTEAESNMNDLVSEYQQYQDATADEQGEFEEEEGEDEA
# T1 sequence (P81947 whole entry): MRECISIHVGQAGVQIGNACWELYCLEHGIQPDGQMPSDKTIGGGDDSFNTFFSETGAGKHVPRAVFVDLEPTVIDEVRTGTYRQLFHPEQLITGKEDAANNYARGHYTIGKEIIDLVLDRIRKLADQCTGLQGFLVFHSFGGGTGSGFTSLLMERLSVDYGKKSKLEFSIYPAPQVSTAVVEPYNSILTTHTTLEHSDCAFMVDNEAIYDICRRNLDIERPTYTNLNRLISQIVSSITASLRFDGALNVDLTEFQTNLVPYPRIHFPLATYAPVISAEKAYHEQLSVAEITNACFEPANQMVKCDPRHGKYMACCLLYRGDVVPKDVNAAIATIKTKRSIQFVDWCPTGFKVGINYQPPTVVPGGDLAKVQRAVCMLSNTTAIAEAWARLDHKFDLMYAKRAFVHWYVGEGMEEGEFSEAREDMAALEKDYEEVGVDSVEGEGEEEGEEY
# Method: Inhibition of Tubulin Polymerization.
# Tubulin polymerization was evaluated in 0.25 mL reaction mixtures (final volume) containing 1 mg/mL (10 μM) purified bovine brain tubulin, 0.8 M monosodium glutamate (pH 6.6), 4% (v/v) dimethyl sulfoxide, 0.4 mM GTP, and different compound concentrations. All components except GTP were preincubated for 15 min at 30° C. in 0.24 mL. The assay mixtures were cooled to 0° C., and 10 μL of 0.01 M GTP was added to each sample. Reaction mixtures were transferred to cuvettes held at 0° C. in Beckman DU-7400 and DU-7500 spectrophotometers equipped with electronic temperature controllers. The temperature was increased to 30° C., over about 30 s, and polymerization was followed turbidimetrically at 350 nm for 20 min.
# tubulin = experiment: Colchicine binding assay (inhibition of [3H]colchicine binding to tubulin); settings: compound at 5 μM; 1.0 μM tubulin, 5.0 μM [3H]colchicine
# Method: Colchicine Binding Assay.
# Inhibition of [^3H]colchicine binding to tubulin was measured in 0.1 mL reaction mixtures, each containing 1.0 μM tubulin, 5.0 μM [^3H]colchicine (Perkin-Elmer), 5% (v/v) dimethyl sulfoxide, […], and components that stabilize the colchicine binding activity of tubulin (1.0 M monosodium glutamate [adjusted to pH 6.6 with HCl in a 2.0 M stock solution], 0.5 mg/mL bovine serum albumin, 0.1 M glucose-1-phosphate, 1.0 mM MgCl2, and 1.0 mM GTP). […] Reactions were stopped with 2.0 mL of ice-cold water, with the reaction mixtures being placed on ice. Each diluted sample was poured onto a stack of two DEAE-cellulose filters (GE Biomedical), followed by 3 successive 2 mL aliquots of ice-cold water. A reduced vacuum was used to remove excess water from the filters, which were washed three times with 2 mL water and placed into vials containing 5 mL of Biosafe II scintillation cocktail. Samples were counted 18 h later in a Beckman scintillation counter. Samples with inhibitors were compared to samples with no inhibitor, and percent inhibition was determined, correcting all values for the amount of radiolabel bound to the filters in the absence of tubulin.
# [2] = tested on: SK-OV-3 (ovarian) cancer cell line; experiment: Sulforhodamine B (SRB) growth inhibition assay, SK-OV-3; assay type: cell-based, human; settings: 48 h treatment
# Text: (§1) Cell Lines and Sulforhodamine B (SRB) Assay.
# (§2) The sulforhodamine B (SRB) assay was used to assess growth inhibition of human cancer cells, as previously described. DU-145, SK-OV-3, and NCI-H460 cancer cell lines (obtained from ATCC) were maintained in T75 flasks (Corning) using high glucose DMEM supplemented with 10% fetal bovine serum (Gibco)/1% gentamicin sulfate for a maximum of 15 passages. For these experiments, cells were trypsinized, counted, and plated at 7000-8000 cells/well into 96-well plates (Corning) and incubated for 24 h at 37° C. in a humidified incubator in a 5% CO2 atmosphere. Compounds to be tested were dissolved in DMSO to generate a 10 mg/mL stock solution, and serial dilutions added in media to the plates. Doxorubicin (Sigma-Aldrich) and paclitaxel (Tokyo Chemical) were used as positive controls. After a 48 h treatment, the cells were fixed with trichloroacetic acid (10% final concentration), washed, dried, stained with SRB dye, washed to remove excess dye, and dried. SRB dye was solubilized, and absorbances were measured at wavelength 540 nm and normalized to values at wavelength 630 nm using an automated Biotek plate reader.
# [3] = tested on: NCI-H460 (lung) cancer cell line; experiment: Sulforhodamine B (SRB) growth inhibition assay, NCI-H460; assay type: cell-based, human; settings: 48 h treatment
# Text: as §1, §2
# [4] = tested on: DU-145 (prostate) cancer cell line; experiment: Sulforhodamine B (SRB) growth inhibition assay, DU-145; assay type: cell-based, human; settings: 48 h treatment
# Text: as §1, §2
# [5] = tested on: PC3-DAB2IP-luc human prostate tumor xenograft; experiment: In vivo vascular disruption by dynamic bioluminescence imaging (BLI); design: species or system Male Copenhagen rats; settings: for vascular response by BLI light emission (in words): phosphate
# Text: In Vivo Vascular Disruption.
# The human prostate cancer cell line (PC3) was modified by knock down of a tumor suppressor protein PC3-DAB2IP and further modified by transfection with a firefly luciferase reporter, as described in detail previously. Male Copenhagen rats (originally from Charles River and bred at UT Southwestern) were inoculated subcutaneously with 5×10^5 PC3-DAB2IP-luc cells mixed with 30% Matrigel® in the right thigh. These rats were approximately 6 weeks old and weighed between 100-120 g on date of implantation. Tumors were allowed to grow to a diameter of at least 1 cm before treatment commenced. Three rats were treated with VDA prodrug 89 (25 mg/mL in saline) administered IP. Rat 1 received 10 mg/kg followed by 40 mg/kg 24 h later and CA4P (30 mg/kg at 20 mg/mL in saline) was administered IP as a control 4 days later. Rat 2 received a single dose of 40 mg/kg of VDA prodrug 89, and rat 3 received 80 mg/kg of 89. Bioluminescence imaging (BLI) was performed before treatment (baseline), and at 4 and 24 h after treatment using an IVIS Spectrum® (Perkin-Elmer). Briefly, anesthetized rats (breathing oxygen with 3% isoflurane, Henry Schein Inc.) were injected subcutaneously in the foreback neck region with 120 mg/kg D-luciferin sodium salt (Gold Biotechnology, St. Louis, Mo.) and imaged over a time course of about 30 min. Fresh luciferin was administered at each time point. The resulting light intensity time curves were analyzed using Living Image® Software and light emission measured for a region of interest encompassing the tumor. All animal procedures were carried out in accordance with the Guide for the Care and Use of Laboratory Animals as adopted and promulgated by the U.S. National Institutes of Health as well as the Institutional Animal Care and Use Committee approved protocols (APN 2017-102168) at the University of Texas Southwestern Medical Center.
# Ultimately, VDAs will be used in vivo, and thus it is crucial to understand both efficacy of vascular disruption and potential off target toxicity in vivo. As a preliminary investigation, the extent of vascular damage was assessed in a human prostate tumor line in rats treated with the water-soluble prodrug salt 89 compared to CA4P as control. Many imaging methods have been developed to assess vascular disruption non-invasively in vivo. Dynamic bioluminescence imaging (BLI) was favored for initial validation of VDA activity since it provides a fast, non-invasive and easy method and allows comparison of repeat or sequential investigations. BLI does require the use of cells transfected to express luciferase (luc), but these are commonly available and we have used this approach extensively as have others. The human prostate cancer PC3 line was used, in which the tumor suppressor protein DAB2IP had been knocked down and luciferase introduced. BLI requires administration of luciferin substrate, which readily crosses membranes and is carried throughout the vasculature. The measurement of light emission dynamics is related to vascular delivery of the luciferin substrate, and thus it provides a measure of vascular patency. Disruption of tumor vasculature blocks delivery of the substrate and consequently results in a quantifiable decrease in bioluminescent signal.
# [6] = 30 mg/kg, rats, shown previously; cited from earlier work
Compound,IC50 [1],inhibition of tubulin polymerization (in words) [1],% Inhibition of colchicine binding ± SD (tubulin),"GI50 ([2]; Homo sapiens, SK-OV-3)","GI50 ([3]; Homo sapiens, NCI-H460)","GI50 ([4]; Homo sapiens, DU-145)","vascular response by BLI light emission (in words) ([5]; 10 mg/kg IP, rat)","vascular response by BLI light emission (in words) ([5]; 40 mg/kg IP, 4 h, rat)","recovery of BLI signal (in words) ([5]; 40 mg/kg IP, 24 h, rat)","appearance of the rats ([5]; 40 mg/kg IP, at 48 h)","tolerability ([5]; 80 mg/kg IP, rat)","vascular disruption (in words) ([5]; 80 mg/kg IP, rat)",GI50 [2],GI50 [3],GI50 [4],"vascular response by BLI (in words) ([5]; 30 mg/kg IP, given 4 days after 89 to the same rat)",vascular shutdown (in words) [6]
"COc1cc(C2=CC=CCc3c2ccc(OC)c3OP(=O)([O-])[O-])cc(OC)c1OC.[Na+].[Na+] [Compound 89, Sodium 3-methoxy-9-(3,4,5-trimethoxyphenyl)-5H-benzo[7]annulen-4-yl phosphate]",16 ± 0.7 µM,inactive,45 ± 2 (5 μM) %,0.0153 µM,0.0291 µM,0.0239 µM,no vascular perturbation; also recorded: minimal change in light emission,substantial vascular shutdown; also recorded: substantially diminished light emission; also recorded: revealed vascular disruption,substantial recovery by 24 h,appeared healthy,well tolerated,did not show additional vascular disruption,–,–,–,–,–
"COc1ccc2c(c1C)CCCC=C2c1cc(OC)c(OC)c(OC)c1 [Compound 9, 1-methy-2-methoxy-5-(3′, 4′, 5′-trimethoxyphenyl)-benzosuber-5-ene]",1.6 ± 0.2 µM,–,65 ± 0.6 (5 μM) %,0.33 µM,0.422 µM,0.644 µM,–,–,–,–,–,–,–,–,–,–,–
"CCOC(=O)c1c(OC)ccc2c1CCCC=C2c1cc(OC)c(OC)c(OC)c1 [Compound 47, Ethyl 3-methoxy-9-(3,4,5-trimethoxyphenyl)-6,7-dihydro-5H-benzo[7]annulene-4-carboxylate]",1 ± 0.07 µM,–,47 ± 1 (5 μM) %,0.299 µM,0.353 µM,0.631 µM,–,–,–,–,–,–,–,–,–,–,–
"COc1ccc2c(c1O)CCCC(O)C2(O)c1cc(OC)c(OC)c(OC)c1 (stereo not drawn) [Compound 35, 2-Methoxy-5-(3,4,5-trimethoxyphenyl)-6,7,8,9-tetrahydro-5H-benzo[7]annulene-1,5,6-triol]",> 20 µM,reduced inhibition of tubulin polymerization,0 (5 μM) %,3.03 µM,3.86 µM,4.04 µM,–,–,–,–,–,–,–,–,–,–,–
"COc1ccc2c(c1C#N)CCCC=C2c1cc(OC)c(OC)c(OC)c1 [Compound 38, 3-Methoxy-9-(3,4,5-trimethoxyphenyl)-6,7-dihydro-5H-benzo[7]annulene-4-carbonitrile]",1.1 ± 0.1 µM,–,62 ± 0.7 (5 μM) %,–,0.434 µM,0.86 µM,–,–,–,–,–,–,0.0648 µM,–,–,–,–
"COc1ccc(/C=C\c2cc(OC)c(OC)c(OC)c2)cc1OP(=O)(O)O [CA4P, combretastatin A-4 phosphate, reference compound]",> 40 µM,–,–,–,–,–,–,–,–,–,–,–,0.00119 µM,0.00194 µM,0.00323 µM,very similar effect,extensive vascular shutdown

# — patent publication US10807932B2, “Benzosuberene analogues and related compounds with activity as anticancer agents” (Baylor University, priority 2018, dated 2020)
